In patent US8530507B2, “Use of levo-ornidazole in the preparation of anti-anaerobic bacteria infection drugs” (priority 2005, dated 2013):
Values after ≈ are worked out from the molar mass of the structure shown.

Experiments:
[1] = test system: Bacteroides; experiment: In vitro MIC determination, clinical anaerobic strains; type: cell-based; details: 40 clinical strains, GAM broth, 72 hours anaerobic incubation at 35° C.
Description: (§1) Experimental strains: isolated from clinical specimens, and species identification were conducted.
(§2) Bacilli preparation: 4˜5 bacteria colonies with same pattern selected from anaerobic GAM plate were inoculated in GAM broth with inoculating loop. The bacteria was incubated at 35° C. under anaerobic condition until a slight turbidity was attained, and adjusted by means of sterilized saline (deoxygenated) so as to attain a turbidity equivalent to the No. 0.5 McFarland turbidity tube, then diluted with GAM broth (at 1:200) for later use.
(§3) MIC (Minimum Inhibitory Concentration) determination: the testing drugs and control drugs were diluted with GAM broth to different concentrations in the test tubes, followed by addition of equal volume of diluted Bacilli (at 1:200), MIC values were read 72 hours after anaerobic incubation at 35° C.

[2] = test system: Clostridium; experiment: as above; type: cell-based; details: 6 clinical strains, GAM broth, 72 hours anaerobic incubation at 35° C.
Description: as §1, §2, §3

[3] = test system: Veillonella; experiment: as above; type: cell-based; details: 23 clinical strains, GAM broth, 72 hours anaerobic incubation at 35° C.
Description: as §1, §2, §3

[4] = test system: Peptostreptococcus; experiment: as above; type: cell-based; details: Peptostreptococcus, 35 clinical strains, GAM broth, 72 hours anaerobic incubation at 35° C.
Description: as §1, §2, §3

[5] = test system: Fusobacterium nucleatum; experiment: as above; type: cell-based; details: 11 clinical strains, GAM broth, 72 hours anaerobic incubation at 35° C.
Description: as §1, §2, §3

[6] = test system: mice; experiment: Effect on the hypnotic effect induced by sodium thiopental in mice; details: 40 mg/kg sodium thiopental i.p. 30 minutes later
Description: The same volume of 0.9% sodium chloride injection containing propylene glycol was administered in the vehicle control group. 30 minute after drug administration, 40 mg/kg of sodium thiopental was administered to mice by intraperitoneal injection. The time for the loss of righting reflex and the time for the recovery were recorded. The injection volume was 0.2 ml/10 g, the administration rate was 0.2 ml/10 sec.

[7] = test system: Beagle dogs; details: dog, in vivo, iv, 200 mg/kg
Text: 2. Toxicity Test in Beagle Dogs (Non-Rodent) After Intravenous Administration of L-ornidazole for Two Weeks
Beagle dogs, 4 dogs in each group with half females and half males, were divided into L-, D-, and racemic ornidazole groups.

[8] = In vivo pharmacokinetics in Beagle dogs; details: both sexes, dog, beagle dogs, individual intravenous dose 13 mg/kg, plasma
Description: The clinical dose of ornidazole is 500 mg for human. By calculating, based on body surface area, the pharmacokinetic experimental dose in Beagle dogs was 13 mg/kg in vivo. Six adult beagle dogs (half males and half females, body weight of 9˜11.5 kg) were randomly divided into three groups. According to crossover design, intravenous injection of L-, D-, and racemic ornidazole were administered in turn to each dog every other week (with one week washout period in between). 2 ml of blood was collected from the vein located at the forelimb of the dogs before drug administration and 0.083, 0.5, 1.0, 2.0, 4.0, 6.0, 8.0, 12.0, 16.0, 24.0 hours after drug administration, which was then placed in the heparinized tube, followed by centrifugation to obtain the plasma. Plasma concentration of drug was determined by HPLC. Pharmacokinetics parameters were estimated using the non-compartmental models. The corresponding pharmacokinetics parameters were obtained by BAPP2.0 using the data of plasma concentration of blood with time obtained above.

[9] = test system: Kunming mice; experiment: Acute toxicology test, LD50 in mice (Bliss method); type: in vivo; details: for Number of dead animals: 10 animals
Description: Kunming mice, half males and half females, with body weights of 18˜22 g, were administered the testing drug solution by injection 8 hours after fasting. The death status of animals was consecutively observed for 14 days after administration.

[10] = test system: mice; experiment: Hypnotic effect of intravenous injection in mice (righting reflex); type: in vivo; details: both, mouse, in vivo, iv, 160 mg/kg, 30 min
Description: White mice, half males and half females, fasted for eight hours. The disappearance of righting reflex in mice was observed. The number of animals who lost their righting reflex was recorded in 30 minutes after drug administration.

[11] = test system: mice; experiment: Effects on spontaneous activities in mice; type: in vivo; details: for spontaneous activity compared with the vehicle control group: recorded at 0.5, 1, 2, 3 and 4 hours
Description: Chlorpromazine was administered at dose of […] in the positive control group, and the same volume of propylene glycol containing 0.9% sodium chloride injection was administered in the vehicle control group. Spontaneous activity was recorded at 0.5, 1, 2, 3 and 4 hours after drug administration. The injection volume was 0.2 ml/10 g and the administration rate was 0.2 ml/10 sec.

Compound: Cc1ncc([N+](=O)[O-])n1CC(O)CCl (racemic) [racemic ornidazole, ornidazole]
- MIC Range [1]: 2.0~16.0 mg/L
- MIC50 ([1]; Bacteroides, read-out: MIC50): 4 µg/mL (≈ 18.2 µM)
- MIC90 ([1]; Bacteroides, read-out: MIC90): 8 µg/mL (≈ 36.4 µM)
- MIC Range [2]: 1.0~2.0 mg/L
- MIC50 ([2]; Clostridium, read-out: MIC50): 2 µg/mL (≈ 9.11 µM)
- MIC90 ([2]; Clostridium, read-out: MIC90): 2 µg/mL (≈ 9.11 µM)
- MIC Range [3]: 2.0~16.0 mg/L
- MIC50 ([3]; Veillonella, read-out: MIC50): 4 µg/mL (≈ 18.2 µM)
- MIC90 ([3]; Veillonella, read-out: MIC90): 8 µg/mL (≈ 36.4 µM)
- MIC50 ([4]; read-out: MIC50): 4 µg/mL (≈ 18.2 µM)
- MIC90 ([4]; read-out: MIC90): 8 µg/mL (≈ 36.4 µM)
- MIC Range [5]: 1.0~32.0 mg/L
- MIC50 ([5]; Fusobacterium nucleatum, read-out: MIC50): 2 µg/mL (≈ 9.11 µM)
- MIC90 ([5]; Fusobacterium nucleatum, read-out: MIC90): 32 µg/mL (≈ 146 µM)
- sleep latency induced by sodium thiopental, compared with the vehicle control group ([6]; 40 mg/kg intravenous): no significant reduction
- sleep latency induced by sodium thiopental, compared with the vehicle control group ([6]; 80 mg/kg intravenous): significantly reduced
- number of Purkinje cells in cerebellum (histological examination) [7]: No reduction in the number of Purkinje cells and cellular degeneration was observed
- half-life ([8]; HPLC, non-compartmental, read-out: t1/2 (half life) (converted)): 5.55 ± 3.12 h
- AUC(0-t) ([8]; read-out: AUC0-t (area under curve)): 76700 ± 10800 ng·h/mL
- clearance ([8]; read-out: Cl (clearance) (converted)): 23.8 mL/min
- MRT ([8]; read-out: MRT (mean retention time of drugs)): 8.01 ± 3.42 h
- Vd ([8]; read-out: Vβ (elimination volume of distribution)): 11.2 ± 3.96 L
- Death rate ([9]; intraperitoneal, 887.4 mg/kg): 0%
- Probability units (Y) ([9]; intraperitoneal, 887.4 mg/kg): 3.39
- Number of dead animals ([9]; intraperitoneal, 887.4 mg/kg): 0
- Death rate ([9]; intraperitoneal, 1044 mg/kg): 30%
- Probability units (Y) ([9]; intraperitoneal, 1044 mg/kg): 4.42
- Number of dead animals ([9]; intraperitoneal, 1044 mg/kg): 3
- Death rate ([9]; intraperitoneal, 1228 mg/kg): 80%
- Probability units (Y) ([9]; intraperitoneal, 1228 mg/kg): 5.46
- Number of dead animals ([9]; intraperitoneal, 1228 mg/kg): 8
- Death rate ([9]; intraperitoneal, 1445 mg/kg): 100%
- Probability units (Y) ([9]; intraperitoneal, 1445 mg/kg): 6.49
- Number of dead animals ([9]; intraperitoneal, 1445 mg/kg): 10
- Death rate ([9]; intraperitoneal, 1700 mg/kg): 100%
- Probability units (Y) ([9]; intraperitoneal, 1700 mg/kg): 7.52
- Number of dead animals ([9]; intraperitoneal, 1700 mg/kg): 10
- Death rate ([9]; intravenous, 243 mg/kg): 0%
- Probability units (Y) ([9]; intravenous, 243 mg/kg): 3.22
- Number of dead animals ([9]; intravenous, 243 mg/kg): 0
- Death rate ([9]; intravenous, 270 mg/kg): 30%
- Probability units (Y) ([9]; intravenous, 270 mg/kg): 4.06
- Number of dead animals ([9]; intravenous, 270 mg/kg): 3
- Death rate ([9]; intravenous, 300 mg/kg): 50%
- Probability units (Y) ([9]; intravenous, 300 mg/kg): 4.90
- Number of dead animals ([9]; intravenous, 300 mg/kg): 5
- Death rate ([9]; intravenous, 333 mg/kg): 50%
- Probability units (Y) ([9]; intravenous, 333 mg/kg): 5.73
- Number of dead animals ([9]; intravenous, 333 mg/kg): 5
- Death rate ([9]; intravenous, 370 mg/kg): 100%
- Probability units (Y) ([9]; intravenous, 370 mg/kg): 6.57
- Number of dead animals ([9]; intravenous, 370 mg/kg): 10
- Death rate ([9]; oral gavage, 655.4 mg/kg): 0%
- Probability units (Y) ([9]; oral gavage, 655.4 mg/kg): 3.20
- Death rate ([9]; oral gavage, 819.2 mg/kg): 20%
- Probability units (Y) ([9]; oral gavage, 819.2 mg/kg): 4.20
- Death rate ([9]; oral gavage, 1024 mg/kg): 70%
- Probability units (Y) ([9]; oral gavage, 1024 mg/kg): 5.19
- Probability units (Y) ([9]; oral gavage, 1280 mg/kg): 6.19
- Death rate ([9]; oral gavage, 1600 mg/kg): 100%
- Number of dead animals ([9]; oral gavage, 1600 mg/kg): 10
- number of mice with loss in righting reflex [10]: 6 mice
- recovery of spontaneous activity ([11]; 40 mg/kg intravenous): gradually become normal after 2 hours
- spontaneous activity compared with the vehicle control group ([11]; 40 mg/kg intravenous): reduced significantly 1 hour after administration
- recovery of spontaneous activity ([11]; 80 mg/kg intravenous): gradually become normal after 3 hours
- spontaneous activity compared with the vehicle control group ([11]; 80 mg/kg intravenous): reduced significantly at 0.5, 1 and 2 hours
- recovery of spontaneous activity ([11]; 160 mg/kg intravenous): gradually become normal after 4 hours
- spontaneous activity compared with the vehicle control group ([11]; 160 mg/kg intravenous): reduced significantly at 0.5, 1, 2 and 3 hours
